Measurements taken from patent publication US11919854B2, “P2RX7 modulators in therapy” (Centre national de la recherche scientifique, priority 2018, dated 2024).
“Also recorded” adds a separate entry of the source.

What was measured:
mouse P2RX7 = target: T1, mouse P2RX7 (Mus musculus, UniProt Q9Z1M0); experiment: Calcium influx and large cation permeation by FACS, 15 min, HEK cells with mouse P2RX7, increasing doses of BzATP; type: cell-based; conditions: 15 min stimulation
T1 construct: expressed in transfected cells; host or cells: HEK cells
T1 sequence (Q9Z1M0 1-595): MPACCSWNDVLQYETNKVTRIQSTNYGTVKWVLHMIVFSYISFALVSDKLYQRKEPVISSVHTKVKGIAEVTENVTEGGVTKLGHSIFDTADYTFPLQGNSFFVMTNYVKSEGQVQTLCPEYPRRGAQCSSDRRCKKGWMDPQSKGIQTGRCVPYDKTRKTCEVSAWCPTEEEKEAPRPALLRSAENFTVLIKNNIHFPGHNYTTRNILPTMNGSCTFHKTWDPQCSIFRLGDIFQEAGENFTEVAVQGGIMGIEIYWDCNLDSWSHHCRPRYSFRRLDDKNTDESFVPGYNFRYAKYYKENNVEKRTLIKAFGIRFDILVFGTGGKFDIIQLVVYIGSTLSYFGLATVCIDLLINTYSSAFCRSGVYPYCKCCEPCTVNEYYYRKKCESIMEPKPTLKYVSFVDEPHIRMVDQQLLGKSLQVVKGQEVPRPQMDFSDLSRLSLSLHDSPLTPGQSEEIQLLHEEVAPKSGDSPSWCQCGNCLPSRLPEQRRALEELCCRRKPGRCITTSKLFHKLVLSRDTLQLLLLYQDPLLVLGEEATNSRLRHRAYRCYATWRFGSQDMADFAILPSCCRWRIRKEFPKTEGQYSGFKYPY
Experimental: Calcium influx (Fluo-AM positive cells) and large cation permeation (Topro3 positive cells) were assayed by FACS 15 min after stimulation of HEK cells transfected with the mouse P2RX7 treated with increasing doses of BzATP.
Complementary analyses were also performed to document the biological activity of HEI3090, the more soluble version of HEI2328, on both HEK cells expressing mouse P2RX7 (mP2RX7) (FIG. 14) or human P2RX7 (hP2RX7) (FIG. 15). BzATP or ATP stimulate channel activity, an event that occurred in the first minutes of P2RX7 stimulation. […] The same positive effect was observed on cells expressing human P2RX7 (FIG. 15).

P2RX7 = experiment: Large pore opening in splenocytes from control or p2rx7 KO mice; type: cell-based, mouse; conditions: HEI3090 50 μM, BzATP 500 μM
Experimental: A. Splenocytes from control or p2rx7^exon2 KO mice were isolated and treated with HEI3090 (50 μM) in presence of absence of BzATP (500 μM). B. Large pore opening induced by increasing concentration of BzATP in presence or absence of HEI3090 in human P2RX7 expressing cells.
Indeed, with the same BzATP concentration, more cells are positive for Topro3 staining.

[1] = Plasmatic concentration after intraperitoneal administration (LC-MS/MS); type: in vivo, mice; conditions: ip
Experimental: B. HEI 3090 is found within plasma until 18 h after intraperitoneal administration. Intraperitoneal administration of HEI-3090 (0.166 mg/mL in 10% DMSO) was performed and serum was taken at 0, 10, 20, 30, […], 120, 240, 360, 1080 and 1440 min. Plasmatic concentration was determined by LC-MS/MS and reached a maximum of 2.5 μM.
Stability was studied in the mouse liver microsome system—and human, not shown—(FIG. 13A) and directly in vivo, for HEI3090 molecule (FIG. 13B). These experiments highlighted that HEI3090 is found at a concentration of maximum 2.5 μM in the plasma of mice injected with HEI3090 (ip, 1.5 mg/kg in 10% DMSO).

O=C(NCc1ccc(Cl)cc1Cl)[C@@H]1CCC(=O)N1C(=O)Nc1ccc(Cl)nc1 [HEI3090, (S)—N^1-(6-Chloropyridin-3-yl)-N^2-(2,4-dichlorobenzyl)-5-oxopyrrolidine-1,2-dicarboxamide]
decrease of the EC50 (BzATP) in the presence of HEI3090 (mouse P2RX7; increasing doses of BzATP, HEI3090 250 nM): 22% | shift of the EC50 for BzATP (mouse P2RX7; low dose of HEI3090 (250 nM)): shift to the left of the EC50 for BzATP | Topro3 incorporation / effect in splenocytes from P2rx7 KO mice (P2RX7): Topro3 incorporation is lost; also recorded: absence of effect | large pore opening in presence of BzATP (P2RX7; splenocytes from control mice): potentializes large pore opening in presence of BzATP | time found within plasma after intraperitoneal administration ([1]; 0.166 mg/mL in 10% DMSO): ≤ 18 h | maximum plasmatic concentration ([1]; mice, 1.5 mg/kg in 10% DMSO (0.166 mg/mL in 10% DMSO)): 2.5 µM
